“And” between values parts separate entries of the source, which are not always exact repeats. Equal entries are not always repeated. Marks after values point to notes of the source that are not given here.
What was measured:
[1] = system: male rats with cytopenia; test: Hemostimulating activity: general blood analysis of rats with cyclophosphane cytopenia; assay type: in vivo; conditions: for hemostimulating effect (in words): rats with cyclophosphane cytopenia, summary of Tables 5-7; for ESR / Erythrocytes / Leukocytes / Lymphoctes / Reticulocytes / Segmented neutrophils / Thrombocytes / Lymphocytes: rats, acetylcysteine 9.5, lithium carbonate 3, aC-Li 10, Cu-aC-Li:aC-Li 10 mg/kg
Experimental: The study was carried out on random-bred male white rats weighing 140-160 g, which were given a single subcutaneous injection of cyclophosphane in a dose of 100 mg/kg in physiological saline.
No. 3—animals which had received an injection of cyclophosphane and to which Cu-aC-Li:aC-Li in physiological saline was then administered in a dose of 10 mg/kg as a therapeutic means (amount of coordination compound 7.8×10^−8 M/kg);
No. 4—animals which had received an injection of cyclophosphane and to which aC-Li in physiological saline was then administered in a dose of 10 mg/kg as a therapeutic means;
No. 6—animals which had received an injection of cyclophosphane and to which acetylcysteine in physiological saline was then administered in a dose of 9.5 mg/kg as a therapeutic means (the amount of acetylcysteine was calculated on the basis of the proportion by weight of acetylcysteine (˜0.95) in 10 mg of […], which corresponds to 9.5 mg of the hydrogenated form of acetylcysteine).
The test preparations were administered on the third day after the administration of cyclophosphane.
Blood for hematological investigations was taken from the caudal vein 3, 7 and 14 days after administration of CP. At the end of each series (3, 7 and 14 days), the experimental animals were euthanized by an overdose of ether and blood was obtained from the caudal vein and bone marrow from the femur.
This study assessed the cellularity of the blood (the number of erythrocytes, thrombocytes, leukocytes, lymphocytes and neutrophils, and also the ESR) and bone marrow on 7-day administration of the test compounds to hemodepressed animals.

[2] = system: white rats with experimental diabetes; test: Alloxan diabetes model; assay type: in vivo; conditions: for Cholesterol / Glucose / Total lipids / Triglycerides / β-lipoproteins: blood serum; for Body weight / Daily water consumption / Percent living: intragastrically once daily
Experimental: the alloxan diabetes model (reduction in the sugar content in the conditions of experimental chronic insulin insufficiency).
The alloxan diabetes model was used in another series of experiments. Alloxan diabetes was induced by a single subcutaneous injection of alloxan hydrate (Chemapol, Czech Republic) in a dose of 100 mg/kg in rats weighing 180-200 g which had fasted for 24 hours. The following groups of animals were studied: intact rats, untreated rats with diabetes, and animals with diabetes which were given thioctic acid daily for 1 month in a dose of 100 mg/kg, and thioctic acid in combination with the coordination compound in a dose of 10 mg/kg intragastrically once daily. Administration of the preparations commenced after 7 days, when the blood glucose level had roughly doubled as compared with the control. Each group contained 20 animals of both sexes. The general condition of the animals, the demand for food and water, the body weight, and the blood serum levels of glucose, total lipids, triglycerides, lipoproteins and cholesterol were recorded in the course of the experiment. […]

[3] = system: mice with hyperglycemia caused by glucose; test: Glucose loading test, blood sugar level; assay type: in vivo
Experimental: the glucose loading test (reduction in the sugar content in animals with hyperglycemia, caused by administration of glucose when fasting); Blood was obtained after 1 h by caudal vein puncture and the serum glucose level was determined by the ortho-toluidine method. Experiments to study the effect of the test substances on the blood glucose level were carried out on white mice weighing 17-18 g. The animals were deprived of food from the evening prior to the experiment. […] Immediately after injecting the glucose, the experimental animals were injected subcutaneously with a reference preparation (insulin in a dose of 0.3 units/kg). […] The blood glucose level was determined over a period of 4 hours with intervals of 1 hour.

[4] = system: A431 line human epidermoid carcinoma cells; test: Proliferative activity and death of A431 cells (cell count, propidium iodide flow cytofluorimetry); assay type: cell-based; conditions: for Proportion of dead cells / Total cells: A431, EGF 200 ng/ml
Experimental: The number of living and dead cells in a culture was determined after 24 and 48 hours.
A431 line human epidermoid carcinoma cells, obtained from the All-Russian Cell Culture Collection (Russian Academy of Sciences Institute of Cytology, St. Petersburg).
Cells are cultured in a CO2 incubator (New Brunswick Scientific) at +37° C. and with a CO2 content of 5%. Cells are grown in these conditions to a monolayer culture and are exposed to the action of the test compounds.
The DMEM medium (OOO PanEko, Moscow) with the addition of gentamicin K (80 mg/l), L-glutamine (300 mg/l) and fetal serum (PAA, Austria) to a final concentration of 10%, is used for culturing cells. Cells are transferred to a medium with a reduced serum content of 0.5% 24 hours before commencing an experiment.
The cells were then suspended by pipetting with an automatic pipette and were combined with the previously collected medium. Samples were centrifuged at room temperature for 5 min at 400 g, the supernatant was removed and the deposit was resuspended in pH 7.4 PBS phosphate-salt buffer.
Propidium iodide was added to a suspension of cells to a concentration of 50 μg/ml 5-10 min before measuring in a Bruker ACR 1000 flow cytofluorimeter. This stain is able to penetrate through a damaged cell membrane, and stained cells are dead.

[5] = day 3 after cyclophosphane 100 mg/kg
[6] = day 7 after cyclophosphane 100 mg/kg
[7] = day 14 after cyclophosphane 100 mg/kg
[8] = Table 2, age of culture 24 hours, cysteine […], C—Pd […], C—Pd:C […]
[9] = Table 2, age of culture 48 hours, cysteine […], C—Pd […], C—Pd:C […]

## O=C([O-])[O-].[Li+].[Li+] [Li2HCO3, lithium carbonate]
[1]
  hemostimulating effect (in words): positive trends
[1]; [5]
  ESR: 2.4 ± 0.42 mm/h
  Erythrocytes: 3.7 ± 0.21 10^12/l
  Leukocytes: 3.75 ± 0.46* 10^9/l
  Lymphoctes: 62 ± 3.8 %
  Reticulocytes: 0.118 ± 0.01 %
  Segmented neutrophils: 19.7 ± 3.4 %
  Thrombocytes: 256 ± 45.3 10^9/l
[1]; [6]
  ESR: 2.0 ± 0.36 mm/h and 3.2 ± 0.80 mm/h
  Erythrocytes: 3.6 ± 0.29 10^12/l and 3.2 ± 0.18 10^12/l
  Leukocytes: 3.22 ± 0.11* 10^9/l and 4.8 ± 0.18** 10^9/l
  Reticulocytes: 1.1 ± 0.1% and 1.2 ± 0.2%
  Segmented neutrophils: 33 ± 1.7 % and 50.4 ± 0.6 %
  Thrombocytes: 119 ± 12.0** 10^3/l and 164 ± 10.0** 10^3/l
[1]; [7]
  ESR: 2.4 ± 0.65 mm/h
  Erythrocytes: 4.9 ± 0.27 10^12/l
  Leukocytes: 5.9 ± 0.26** 10^9/l
  Lymphocytes: 69.3 ± 0.9%
  Reticulocytes: 1.4 ± 0.3%
  Segmented neutrophils: 14.9 ± 2.6 %
  Thrombocytes: 401 ± 59.9 10^3/l

## O=C(O)CCCCC1CCSS1 (centres unmarked) [Thioctic acid, thioctic acid]
[2]; 14 days
  Cholesterol: 2.4 ± 0.2 mmol/L
  Glucose: 5.2 ± 0.2 mmol/L
  Total lipids: 10.4 ± 0.5 g/L
  Triglycerides: 2.3 ± 0.2 mmol/L
  β-lipoproteins: 2.1 ± 0.2 g/L
  Body weight: 180 ± 10 g
  Daily water consumption: 25 ± 5
  Percent living: 100%
[2]; 20 days
  Cholesterol: 1.4 ± 0.2 mmol/L
  Glucose: 4.8 ± 0.1 mmol/L
  Total lipids: 10.2 ± 0.3 g/L
  Triglycerides: 1.5 ± 0.2 mmol/L
  β-lipoproteins: 2.1 ± 0.3 g/L
  Body weight: 185 ± 10 g
  Daily water consumption: 22 ± 5
  Percent living: 100%
[2]; 30 days
  Cholesterol: 1.4 ± 0.1 mmol/L
  Glucose: 4.6 ± 0.2 mmol/L
  Total lipids: 9.5 ± 0.2 g/L
  Triglycerides: 1.4 ± 0.2 mmol/L
  β-lipoproteins: 2.1 ± 0.3 g/L
  Body weight: 195 ± 10 g
  Daily water consumption: 20 ± 3
  Percent living: 100%
[3]; 5.5 mg/kg intramuscularly, 1 hour
  Blood sugar level: 4.3 ± 0.2 mmol/L
[3]; 5.5 mg/kg intramuscularly, 2 hours
  Blood sugar level: 4.0 ± 0.2 mmol/L
[3]; 5.5 mg/kg intramuscularly, 3 hours
  Blood sugar level: 4.4 ± 0.3 mmol/L
[3]; 5.5 mg/kg intramuscularly, 4 hours
  Blood sugar level: 4.1 ± 0.1 mmol/L
[3]; 11 mg/kg intramuscularly, 1 hour
  Blood sugar level: 4.5 ± 0.2 mmol/L
[3]; 11 mg/kg intramuscularly, 2 hours
  Blood sugar level: 4.2 ± 0.2 mmol/L
[3]; 11 mg/kg intramuscularly, 3 hours
  Blood sugar level: 4.2 ± 0.3 mmol/L
[3]; 11 mg/kg intramuscularly, 4 hours
  Blood sugar level: 4.2 ± 0.1 mmol/L
[3]; 100 mg/kg intramuscularly, 1 hour
  Blood sugar level: 3.0 ± 0.3 mmol/L
[3]; 100 mg/kg intramuscularly, 2 hours
  Blood sugar level: 2.8 ± 0.1 mmol/L
[3]; 100 mg/kg intramuscularly, 3 hours
  Blood sugar level: 2.5 ± 0.1 mmol/L
[3]; 100 mg/kg intramuscularly, 4 hours
  Blood sugar level: 2.4 ± 0.3 mmol/L
[3]; 200 mg/kg intramuscularly, 1 hour
  Blood sugar level: 2.7 ± 0.2 mmol/L
[3]; 200 mg/kg intramuscularly, 2 hours
  Blood sugar level: 2.6 ± 0.3 mmol/L
[3]; 200 mg/kg intramuscularly, 3 hours
  Blood sugar level: 2.3 ± 0.2 mmol/L
[3]; 200 mg/kg intramuscularly, 4 hours
  Blood sugar level: 2.1 ± 0.2 mmol/L
[3]; doses of 5.5 and 11 mg/kg, without the coordination compound
  hypoglycemizing effect (in words): did not exhibit a hypoglycemizing effect

## CC(=O)N[C@@H](CS)C(=O)[O-].[Li+] [aC—Li, lithium salt of acetylcysteine]
[1]
  hemostimulating effect (in words): positive trends
[1]; [5]
  ESR: 3.3 ± 0.80 mm/h
  Erythrocytes: 4.0 ± 0.23 10^12/l
  Leukocytes: 4.38 ± 0.31* 10^9/l
  Lymphoctes: 45 ± 1.6 %
  Reticulocytes: 0.1 ± 0.1 %
  Segmented neutrophils: 42 ± 1.6 %
  Thrombocytes: 387 ± 17.4 10^9/l
[1]; [7]
  ESR: 2.7 ± 0.49 mm/h
  Erythrocytes: 5.2 ± 0.26 10^12/l
  Leukocytes: 5.6 ± 0.22** 10^9/l
  Lymphocytes: 72.5 ± 1.4%
  Reticulocytes: 1.3 ± 0.3%
  Segmented neutrophils: 20.3 ± 2.4 %
  Thrombocytes: 390 ± 38.3 10^3/l

## CC(=O)N[C@@H](CS)C(=O)O [acetyl cysteine, acetylcysteine]
[1]
  hemostimulating effect (in words): positive trends
[1]; [5]
  ESR: 2.2 ± 0.30 mm/h
  Erythrocytes: 3.0 ± 0.29 10^12/l
  Leukocytes: 3.26 ± 0.31* 10^9/l
  Lymphoctes: 68 ± 2.8 %
  Reticulocytes: 0.09 ± 0.006 %
  Segmented neutrophils: 17.6 ± 2.1 %
  Thrombocytes: 220 ± 45.3 10^9/l
[1]; [6]
  ESR: 1.9 ± 0.39 mm/h
  Erythrocytes: 3.1 ± 0.33 10^12/l
  Leukocytes: 3.47 ± 0.08* 10^9/l
  Lymphocytes: 51.5 ± 1.3 %
  Segmented neutrophils: 30 ± 1.8 %
  Thrombocytes: 124 ± 11 10^9/L
[1]; [7]
  ESR: 2.1 ± 0.73 mm/h
  Erythrocytes: 4.7 ± 0.21 10^12/l
  Leukocytes: 5.7 ± 0.22** 10^9/l
  Lymphocytes: 72.1 ± 1.6%
  Reticulocytes: 1.1 ± 0.4%
  Segmented neutrophils: 13.3 ± 1.9 %

## Epidermal growth factor: physiological high-affinity ligand of the EGF receptor
[4]; [8]
  Proportion of dead cells: 19%
  Total cells: 47300 mL⁻¹
[4]; [9]
  Proportion of dead cells: 23%
  Total cells: 68800 mL⁻¹
[4]; Table 3, 24 hours
  Proportion of dead cells: 22%
  Total cells: 52000 mL⁻¹
[4]; Table 3, 48 hours
  Proportion of dead cells: 29%
  Total cells: 71700 mL⁻¹
[4]; summary of Table 2
  effect on the proliferative activity of A431 cells (in words): maximum stimulating effect

## Insulin: reference preparation
[3]; insulin 0.3 units/kg subcutaneously, 1 hour
  Blood sugar level: 1.2 ± 0.1 mmol/L
[3]; insulin 0.3 units/kg subcutaneously, 2 hours
  Blood sugar level: 1.4 ± 0.1 mmol/L
[3]; insulin 0.3 units/kg subcutaneously, 3 hours
  Blood sugar level: 1.6 ± 0.2 mmol/L
[3]; insulin 0.3 units/kg subcutaneously, 4 hours
  Blood sugar level: 2.0 ± 0.1 mmol/L
